Read-outs that look alike come from different tables or passages of the source.
Experiments:
CFTR [1] = target: T1, CFTR (Homo sapiens, UniProt P13569, DEL508-508); experiment: HBE assay: Ussing chamber assay of CFTR-mediated short-circuit currents in F508del/MF-HBE cells; assay type: cell-based; settings: 20% human serum; for EC50: range of concentrations in combination with 1 μM Ivacaftor, 18-24 hours at 37° C.; for Emax: with 1 μM Ivacaftor, read-out: HBE Max Activity (%); for Emax / HBE Activity at 10 μM (%): 18-24 hours, compared to known Vertex corrector with 18 μM Tezacaftor and 1 μM Ivacaftor; for HBE Activity at 10 μM (%): single fixed concentration of 10 μM with 1 μM Ivacaftor
T1 construct: endogenous in cells; host or cells: primary human bronchial epithelial cells from CF subjects (F508del/MF)
T1 sequence (P13569 with tags, fused parts or gaps DEL508-508): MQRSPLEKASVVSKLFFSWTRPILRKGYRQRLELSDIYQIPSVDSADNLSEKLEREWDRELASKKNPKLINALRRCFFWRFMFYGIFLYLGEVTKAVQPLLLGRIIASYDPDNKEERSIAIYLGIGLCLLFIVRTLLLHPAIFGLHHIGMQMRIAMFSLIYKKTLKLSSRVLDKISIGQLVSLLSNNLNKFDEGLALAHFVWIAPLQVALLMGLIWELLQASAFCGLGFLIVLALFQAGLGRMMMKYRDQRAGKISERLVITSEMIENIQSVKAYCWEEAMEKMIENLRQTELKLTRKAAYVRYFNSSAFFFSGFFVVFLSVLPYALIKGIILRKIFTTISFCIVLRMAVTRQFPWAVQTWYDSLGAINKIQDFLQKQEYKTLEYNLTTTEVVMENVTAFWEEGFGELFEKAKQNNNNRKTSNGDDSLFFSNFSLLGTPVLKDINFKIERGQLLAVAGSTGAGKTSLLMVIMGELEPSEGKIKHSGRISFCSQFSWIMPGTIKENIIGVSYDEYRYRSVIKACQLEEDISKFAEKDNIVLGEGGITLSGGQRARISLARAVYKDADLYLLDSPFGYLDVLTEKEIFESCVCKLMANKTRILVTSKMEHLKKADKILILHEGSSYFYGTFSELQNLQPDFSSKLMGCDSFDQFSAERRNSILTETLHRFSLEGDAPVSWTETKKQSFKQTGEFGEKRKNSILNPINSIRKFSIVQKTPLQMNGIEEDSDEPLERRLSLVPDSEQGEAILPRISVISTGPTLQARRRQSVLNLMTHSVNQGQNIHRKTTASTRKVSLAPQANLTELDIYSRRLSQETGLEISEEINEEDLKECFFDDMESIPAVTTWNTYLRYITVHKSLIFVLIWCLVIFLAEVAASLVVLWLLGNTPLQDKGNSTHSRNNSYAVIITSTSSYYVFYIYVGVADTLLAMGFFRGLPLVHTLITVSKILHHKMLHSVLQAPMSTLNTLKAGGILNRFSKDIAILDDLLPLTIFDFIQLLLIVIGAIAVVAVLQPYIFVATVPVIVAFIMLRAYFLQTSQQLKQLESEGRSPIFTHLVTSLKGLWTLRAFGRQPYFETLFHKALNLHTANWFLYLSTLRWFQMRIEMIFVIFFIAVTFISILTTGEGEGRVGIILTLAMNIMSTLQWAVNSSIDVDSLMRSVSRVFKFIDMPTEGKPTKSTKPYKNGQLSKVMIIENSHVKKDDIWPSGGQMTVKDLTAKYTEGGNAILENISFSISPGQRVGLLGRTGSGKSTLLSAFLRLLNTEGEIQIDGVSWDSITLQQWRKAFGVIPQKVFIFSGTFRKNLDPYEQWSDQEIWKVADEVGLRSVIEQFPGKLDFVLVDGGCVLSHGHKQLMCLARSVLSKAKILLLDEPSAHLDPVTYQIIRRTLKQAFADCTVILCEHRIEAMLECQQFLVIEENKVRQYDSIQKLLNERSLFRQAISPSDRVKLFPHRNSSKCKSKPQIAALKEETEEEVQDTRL
Protocol: 1. Ussing Chamber Assay of CFTR-Mediated Short-Circuit Currents
Ussing chamber experiments were performed using human bronchial epithelial (HBE) cells derived from CF subjects heterozygous for F508del and a minimal function CFTR mutation (F508del/MF-HBE) and cultured as previously described (Neuberger T, Burton B, Clark H, Van Goor F Methods Mol Biol 2011:741:39-54). After four days the apical media was removed, and the cells were grown at an air liquid interface for >14 days prior to use.
To isolate the CFTR-mediated short-circuit (Isc) current, F508del/MF-HBE grown on Costar® Snapwell™ cell culture inserts were mounted in an Ussing chamber and the transepithelial Isc was measured under voltage-clamp recording conditions (Vhold=0 mV) at 37° C. The basolateral solution contained (in mM) 145 NaCl, 0.83 K2HPO4, 3.3 KH2P04, 1.2 MgCl2, 1.2 CaCl2), 10 Glucose, 10 HEPES (pH adjusted to 7.4 with NaOH) and the apical solution contained (in mM) 145 NaGluconate, 1.2 MgCl2, 1.2 CaCl2), 10 glucose, 10 HEPES (pH adjusted to 7.4 with NaOH) and 30 μM amiloride to block the epithelial sodium channel. Forskolin (20 μM) was added to the apical surface to activate CFTR, followed by apical addition of a CFTR inhibitor cocktail consisting of BPO, GlyH-101, and CFTR inhibitor 172 (each at 20 μM final assay concentration) to specifically isolate CFTR currents. The CFTR-mediated Isc (ρA/cm^2) for each condition was determined from the peak forskolin response to the steady-state current following inhibition.
2. Identification of Corrector Compounds
The activity of the CFTR corrector compounds on the CFTR-mediated Isc was determined in Ussing chamber studies as described above. The F508del/MF-HBE cell cultures were either incubated with the corrector compounds at a range of concentrations in combination with 1 μM Ivacaftor or were incubated with the corrector compounds at a single fixed concentration of 10 μM in combination with 1 μM Ivacaftor for 18-24 hours at 37° C. and in the presence of 20% human serum. The concentration of corrector compounds with 1 μM Ivacaftor during the 18-24 hours incubations was kept constant throughout the Ussing chamber measurement of the CFTR-mediated Isc to ensure compounds were present throughout the entire experiment.

[2] = amide bond, 13-membered ring, DMF
F508del = target: T2, F508del (Homo sapiens, UniProt P13569, DEL508-508); experiment: 3T3 assay: membrane potential optical assay for F508del correction in NIH 3T3 cells; assay type: cell-based
T2 construct: expressed in transfected cells
T2 sequence (P13569 with tags, fused parts or gaps DEL508-508): as above
Outline: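 NIH 3T3 mouse fibroblasts stably expressing F508del were incubated with corrector compounds at a range of concentrations for 16–24 h at 37° C, then loaded with a redistribution voltage-sensing dye. A single addition of forskolin under a chloride gradient (gluconate-substituted bath, pH 7.4) gave the membrane-potential response, read by FLIPR.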

CFTR [3] = target: T3, CFTR (Homo sapiens, UniProt P13569); experiment: Membrane Potential Dye, Enteroid Assay A; assay type: cell-based; settings: for EC50: read-out: Ent. A EC50
T3 sequence (P13569 with tags, fused parts or gaps DEL508-508): as above
Outline: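 Signal is reported as % Activity relative to a triple CFTR modulator control (3 μM + 3 μM + 300 nM acute). Read-out: membrane potential fluorescence (20 μM methyl oxonol) monitored for 15 min after chloride-free stimulation. Dye loading took 25 min at room temperature in Bath 1 buffer containing CaCC blockers.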

CFTR [4] = target: T3, CFTR; experiment: Membrane Potential Dye, Enteroid Assay B; assay type: cell-based; settings: Enteroid Assay B; read-out: Ent. B EC50
Outline: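 Enteroid cells loaded 25 min at room temperature with 20 μM methyl oxonol plus 30 μM CaCCinh-A01 and 30 μM Chicago Sky Blue, then switched to chloride-free gluconate buffer. Chloride transport was started by chloride-free stimulation solution, with fluorescence read for 15 min.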

| SMILES | EC50 (CFTR [1]) | Emax (CFTR [1]) | HBE Activity at 10 μM (%) (CFTR [1]) | other results |
| --- | --- | --- | --- | --- |
| Cc1cccc(C)c1-c1cc2nc(n1)NS(=O)(=O)c1cccc(c1)C(=O)NC(C(CC(C)C)c1cccc(C(C)(C)C)c1)CO2 (stereo not shown) [Compound 209] | < 1000 nM | – | – | – |
| Cc1cccc(C)c1-c1cc2nc(n1)NS(=O)(=O)c1cccc(c1)C(=O)N[C@H](CC1CC3(CCC3)C1)CO2 [Compound 49, (11R)-6-(2,6-Dimethylphenyl)-2,2-dioxo-11-(spiro[3.3]heptan-2-ylmethyl)-9-oxa-2λ^6-thia-3,5,12,19-tetrazatricyclo[12.3.1.14,8]nonadeca-1(18),4(19),5,7,14,16-hexaen-13-one] | – | – | +++ (+++ is >60%) | ring closure, yield after HPLC ([2]; from Cc1cccc(C)c1-c1cc(OC[C@H](N)CC2CC3(CCC3)C2)nc(NS(=O)(=O)c2cccc(C(=O)O)c2)n1, CDMT/NMM, 32.4 mM, 25.0 °C, 1.5 h): 49% |
| Cc1ccc2ccccc2c1-c1cc2nc(n1)NS(=O)(=O)c1cccc(c1)C(=O)N[C@H](CC(C)(C)C)CO2 [Compound 52, (11R)-11-(2,2-Dimethylpropyl)-6-(2-methyl-1-naphthyl)-2,2-dioxo-9-oxa-2λ^6-thia-3,5,12,19-tetrazatricyclo[12.3.1.14,8]nonadeca-1(18),4(19),5,7,14,16-hexaen-13-one] | < 1000 nM | > 60% | – | ring closure, yield after HPLC ([2]; from Cc1ccc2ccccc2c1-c1cc(OC[C@H](N)CC(C)(C)C)nc(NS(=O)(=O)c2cccc(C(=O)O)c2)n1, HATU/TEA, 44.8 mM, 25.0 °C, 2.0 h): 25% |
| Cc1cccc(C)c1-c1cc2nc(n1)NS(=O)(=O)c1cccc(c1)C(=O)N[C@H](CC(C)C)CO2 [Compound 96, (11R)-6-(2,6-Dimethylphenyl)-11-isobutyl-2,2-dioxo-9-oxa-2λ^6-thia-3,5,12,19-tetrazatricyclo[12.3.1.14,8]nonadeca-1(18),4(19),5,7,14,16-hexaen-13-one] | – | – | – | ring closure, yield after HPLC ([2]; from Cc1cccc(C)c1-c1cc(OC[C@H](N)CC(C)C)nc(NS(=O)(=O)c2cccc(C(=O)O)c2)n1, HATU/TEA, 31.8 mM, 25.0 °C, 3.0 h): 57%; EC50 (F508del; NIH 3T3 cells, F508del correction): < 1000 nM; Ent. A Max Activity (CFTR [3]; Enteroid Assay A): +++ (+++ is >600%); EC50 (CFTR [3]; Enteroid Assay A): < 1000 nM; EC50 (CFTR [4]): < 1000 nM |
| Cc1cccc(C)c1-c1cc2nc(n1)NS(=O)(=O)c1cccc(c1)C(=O)N[C@@H](CC(C)(C)C)CO2 [Compound 121] | – | – | + (+ is <30%) | – |
| Cc1cccc(C)c1-c1cc2nc(n1)NS(=O)(=O)c1cccc(c1)C(=O)NC(C(CC(C)C)c1cccc(C(C)(C)C)c1)CO2 (stereo not shown) [Compound 211] | < 1000 nM | > 60% | – | – |
| Cc1cccc(C)c1-c1cc2nc(n1)NS(=O)(=O)c1cccc(c1C)C(=O)N[C@H](CC1CCCCC1)CO2 [Compound 75, (11R)-11-(Cyclohexylmethyl)-6-(2,6-dimethylphenyl)-18-methyl-9-oxa-2λ^6-thia-3,5,12,19-tetraazatricyclo[12.3.1.14,8]nonadeca-1(17),4(19),5,7,14(18),15-hexaene-2,2,13-trione] | – | – | – | ring closure, yield after HPLC ([2]; from Cc1cccc(C)c1-c1cc(OC[C@H](N)CC2CCCCC2)nc(NS(=O)(=O)c2cccc(C(=O)O)c2C)n1, HATU/TEA, 40.1 mM, 0.42 h): 8%; Emax (F508del; NIH3T3, Table 8, read-out: 3T3 Max Activity): > 60%; EC50 (F508del; Table 8): < 1000 nM; Ent. A Max Activity (CFTR [3]; Table 8): +++ (+++ is >60%); EC50 (CFTR [3]; Table 8): < 1000 nM |

Further lines, with some results ahead:

| EC50 (CFTR [1]) | Emax (CFTR [1]) | HBE Activity at 10 μM (%) (CFTR [1]) | SMILES | other results |
| --- | --- | --- | --- | --- |
| < 1000 nM | > 60% | – | Cc1cccc(C)c1-c1cc2nc(n1)NS(=O)(=O)c1cccc(c1)C(=O)NC(C1CC3(CCC3)C1)CO2 (stereo not shown) [Compound 50, 6-(2,6-Dimethylphenyl)-2,2-dioxo-11-spiro[3.3]heptan-2-yl-9-oxa-2λ^6-thia-3,5,12,19-tetrazatricyclo[12.3.1.14,8]nonadeca-1(18),4(19),5,7,14,16-hexaen-13-one] | ring closure, yield after HPLC ([2]; from Cc1cccc(C)c1-c1cc(OCC(N)C2CC3(CCC3)C2)nc(NS(=O)(=O)c2cccc(C(=O)O)c2)n1, CDMT/NMM, 46.6 mM, 25.0 °C, 1.5 h): 25% |
| – | – | + (+ is <30%) | Cc1cccc(C)c1-c1cc2nc(n1)NS(=O)(=O)c1cccc(c1)C(=O)NC(C(CC(C)C)c1ccc(C(C)(C)C)cc1)CO2 (stereo not shown) [Compound 207] | – |
| < 1000 nM | > 60% | – | Cc1cccc(CC2CCCCC2)c1-c1cc2nc(n1)NS(=O)(=O)c1cccc(c1)C(=O)N[C@H](CC(C)(C)C)CO2 [Compound 299] | – |
| – | – | +++ (+++ is >60%) | Cc1cccc(C)c1-c1cc2nc(n1)NS(=O)(=O)c1cccc(c1)C(=O)NC(C(CC(C)C)c1ccc(C(C)(C)C)cc1)CO2 (stereo not shown) [Compound 208] | – |
| < 1000 nM | 30 to 60% | – | Cc1cccc(C)c1-c1cc2nc(n1)NS(=O)(=O)c1cccc(c1)C(=O)NC(C(CC(C)C)c1ccc(C(C)(C)C)cc1)CO2 (stereo not shown) [Compound 210] | – |

Reference: patent US20230382924A1, “MODULATORS OF CYSTIC FIBROSIS TRANSMEMBRANE CONDUCTANCE REGULATOR” (VERTEX PHARMACEUTICALS INCORPORATED, priority 2020, published 2023)
